Converted amounts (≈) assume the structure as drawn.
Key:
[1] = test system: HCT-116; experiment: Cytotoxicity against human HCT116 cells after 48 hrs by MTT assay; assay type: functional, cell-based; details: HCT-116, 48 h
[2] = test system: HL-60; experiment: Cytotoxicity against human HL60 cells after 48 hrs by MTT assay; assay type: functional, cell-based; details: HL-60, 48 h

| Compound | IC50 [1] [µg/mL] | IC50 [2] [µg/mL] |
| --- | --- | --- |
| COc1ccc(C[C@H]2C(=O)N[C@@H](C)C(=O)N(C)[C@H]3Cc4ccc(cc4)Oc4cc(ccc4OC)C[C@@H](C(=O)N[C@H](C)C(=O)N[C@@H](C)C(=O)N2C)N(C)C3=O)cc1 | 0.0033 (≈ 0.00428 µM) | 0.0025 (≈ 0.00324 µM) |
| COc1ccc(C[C@H]2C(=O)N[C@@H](C)C(=O)N(C)[C@H]3Cc4ccc(cc4)Nc4cc(ccc4OC)C[C@@H](C(=O)N[C@H](C)C(=O)N[C@@H](C)C(=O)N2C)N(C)C3=O)cc1 | 0.017 (≈ 0.0221 µM) | 0.018 (≈ 0.0234 µM) |

From ChEMBL document CHEMBL3091415, “Aza-cycloisodityrosine analogue of RA-VII, an antitumor bicyclic hexapeptide” (Bioorg Med Chem Lett, 2013)
